Test results from ChEMBL document CHEMBL1139578, “(1H-imidazo[4,5-c]pyridin-2-yl)-1,2,5-oxadiazol-3-ylamine derivatives: further optimisation as highly potent and selective MSK-1-inhibitors” (Bioorg Med Chem Lett, 2005).
pIC50: −log10 of the molar value.

Columns and labels:
[1] = target: T1, Ribosomal protein S6 kinase alpha-5 (Homo sapiens, UniProt O75582); test: Inhibitory concentration against MSK-1
Target sequence in this assay (O75582 whole entry): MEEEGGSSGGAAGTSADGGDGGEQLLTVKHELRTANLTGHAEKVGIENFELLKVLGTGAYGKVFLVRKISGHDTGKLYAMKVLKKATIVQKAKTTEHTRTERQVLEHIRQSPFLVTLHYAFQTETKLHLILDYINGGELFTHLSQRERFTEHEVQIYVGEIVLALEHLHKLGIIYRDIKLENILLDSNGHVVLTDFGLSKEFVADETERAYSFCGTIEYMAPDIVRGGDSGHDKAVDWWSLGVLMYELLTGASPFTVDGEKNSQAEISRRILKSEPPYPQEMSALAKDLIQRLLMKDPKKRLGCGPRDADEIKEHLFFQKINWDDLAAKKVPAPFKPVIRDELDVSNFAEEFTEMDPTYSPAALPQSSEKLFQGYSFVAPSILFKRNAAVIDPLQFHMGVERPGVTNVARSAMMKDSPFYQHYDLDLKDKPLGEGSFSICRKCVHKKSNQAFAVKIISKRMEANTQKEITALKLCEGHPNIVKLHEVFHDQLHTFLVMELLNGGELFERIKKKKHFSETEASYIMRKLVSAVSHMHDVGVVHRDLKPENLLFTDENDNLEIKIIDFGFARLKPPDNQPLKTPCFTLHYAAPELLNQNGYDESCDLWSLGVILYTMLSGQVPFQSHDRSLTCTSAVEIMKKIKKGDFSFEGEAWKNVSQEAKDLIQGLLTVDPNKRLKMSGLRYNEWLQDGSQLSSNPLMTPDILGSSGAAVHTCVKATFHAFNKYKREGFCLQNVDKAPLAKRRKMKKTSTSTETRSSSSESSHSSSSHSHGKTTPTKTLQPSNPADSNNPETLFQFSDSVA

[2] = target: cAMP-dependent protein kinase (PKA) (Homo sapiens) (UniProt P22694+P17612+P22612); test: Percent inhibition against PKA at 10 uM using 100 uM ATP; format: protein assay
[3] = target: Ribosomal protein S6 kinase alpha-1 (Homo sapiens) (UniProt Q15418); test: Percent inhibition against MAPKAP-K1a at 10 uM using 100 uM ATP
[4] = target: 3-phosphoinositide-dependent protein kinase 1 (Homo sapiens) (UniProt O15530); test: Percent inhibition against PDK1 at 10 uM using 100 uM ATP
[5] = target: T2, Cyclin-dependent kinase 2 (Homo sapiens, UniProt P24941); test: Percent inhibition against CDK2 at 10 uM using 100 uM ATP
[6] = target: Dual specificity mitogen-activated protein kinase kinase 1 (Homo sapiens) (UniProt Q02750); test: Percent inhibition against MKK1 at 10 uM using 100 uM ATP
[7] = target: Mitogen-activated protein kinase 13 (Homo sapiens) (UniProt O15264); test: Percent inhibition against p38d at 10 uM using 100 uM ATP
[8] = target: T3, Dual specificity tyrosine-phosphorylation-regulated kinase 1A (Homo sapiens, UniProt Q13627); test: Inhibitory concentration against selected kinase DYRK1-alpha
[9] = target: T2, Cyclin-dependent kinase 2; test: Inhibitory concentration against selected kinase CDK2
[10] = target: Mitogen-activated protein kinase 11 (Homo sapiens) (UniProt Q15759); test: Percent inhibition against p38b at 10 uM using 100 uM ATP
[11] = target: T4, Rho-associated protein kinase 1 (Homo sapiens, UniProt Q13464); conditions: 10 uM
Target sequence in this assay (Q13464 2-1354 limits assumed): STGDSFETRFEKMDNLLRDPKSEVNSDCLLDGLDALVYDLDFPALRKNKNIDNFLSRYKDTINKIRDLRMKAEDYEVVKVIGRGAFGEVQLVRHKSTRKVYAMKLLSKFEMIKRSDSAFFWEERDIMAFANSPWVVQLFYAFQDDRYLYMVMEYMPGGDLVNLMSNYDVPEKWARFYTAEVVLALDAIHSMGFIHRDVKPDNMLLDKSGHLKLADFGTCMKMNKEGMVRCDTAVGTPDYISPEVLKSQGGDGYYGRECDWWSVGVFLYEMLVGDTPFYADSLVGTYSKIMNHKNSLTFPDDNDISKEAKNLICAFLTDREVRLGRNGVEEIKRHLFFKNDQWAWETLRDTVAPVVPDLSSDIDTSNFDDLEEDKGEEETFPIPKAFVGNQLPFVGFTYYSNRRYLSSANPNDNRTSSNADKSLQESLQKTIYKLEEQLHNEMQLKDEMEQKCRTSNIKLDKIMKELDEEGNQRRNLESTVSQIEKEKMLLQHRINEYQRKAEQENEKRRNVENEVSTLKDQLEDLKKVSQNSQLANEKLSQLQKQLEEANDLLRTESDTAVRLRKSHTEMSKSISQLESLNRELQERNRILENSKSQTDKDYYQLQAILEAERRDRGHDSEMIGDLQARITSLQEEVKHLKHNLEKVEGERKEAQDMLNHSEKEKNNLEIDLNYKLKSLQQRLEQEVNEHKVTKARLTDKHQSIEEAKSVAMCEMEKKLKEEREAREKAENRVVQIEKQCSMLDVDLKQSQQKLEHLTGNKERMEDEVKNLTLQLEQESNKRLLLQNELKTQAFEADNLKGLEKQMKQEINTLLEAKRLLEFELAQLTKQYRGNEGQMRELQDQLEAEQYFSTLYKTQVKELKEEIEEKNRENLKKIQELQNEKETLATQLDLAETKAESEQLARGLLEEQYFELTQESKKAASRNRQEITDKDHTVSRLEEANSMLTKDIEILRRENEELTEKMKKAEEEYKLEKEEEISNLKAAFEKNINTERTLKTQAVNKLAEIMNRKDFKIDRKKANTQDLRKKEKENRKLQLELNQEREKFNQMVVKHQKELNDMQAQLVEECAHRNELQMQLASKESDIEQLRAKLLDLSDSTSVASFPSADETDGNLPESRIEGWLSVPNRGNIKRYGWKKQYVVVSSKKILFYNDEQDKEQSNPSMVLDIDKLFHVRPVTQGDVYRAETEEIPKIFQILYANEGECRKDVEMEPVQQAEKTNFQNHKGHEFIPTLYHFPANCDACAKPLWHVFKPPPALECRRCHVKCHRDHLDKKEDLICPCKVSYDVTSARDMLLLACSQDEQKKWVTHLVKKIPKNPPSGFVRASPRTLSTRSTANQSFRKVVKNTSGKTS
Description: Percent inhibition against ROCK1 at 10 uM using 100 uM ATP

[12] = target: T5, Ribosomal protein S6 kinase beta-1 (Homo sapiens, UniProt P23443); test: Inhibitory concentration against selected kinase p70S6K
Target sequence in this assay (P23443 whole entry): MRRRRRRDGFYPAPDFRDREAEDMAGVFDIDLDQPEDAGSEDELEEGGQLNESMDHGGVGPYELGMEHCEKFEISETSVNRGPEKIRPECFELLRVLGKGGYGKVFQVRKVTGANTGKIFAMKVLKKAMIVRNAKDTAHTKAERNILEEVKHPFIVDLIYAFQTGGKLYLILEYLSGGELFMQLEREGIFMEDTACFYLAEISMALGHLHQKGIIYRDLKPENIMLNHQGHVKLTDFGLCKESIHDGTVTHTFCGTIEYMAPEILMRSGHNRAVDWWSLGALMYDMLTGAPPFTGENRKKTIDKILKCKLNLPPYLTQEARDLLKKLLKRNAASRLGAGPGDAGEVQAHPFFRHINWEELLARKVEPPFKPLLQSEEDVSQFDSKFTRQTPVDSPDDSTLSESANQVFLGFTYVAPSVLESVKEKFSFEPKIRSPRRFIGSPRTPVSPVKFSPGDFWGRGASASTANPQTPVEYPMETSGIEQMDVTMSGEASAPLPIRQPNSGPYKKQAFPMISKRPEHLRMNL

[13] = target: 5'-AMP-activated protein kinase catalytic subunit alpha-1 (Homo sapiens) (UniProt Q13131); test: Percent inhibition against AMPK at 10 uM using 100 uM ATP
[14] = target: MAP kinase-activated protein kinase 2 (Homo sapiens) (UniProt P49137); test: Percent inhibition against MAPKAP-K2 at 10 uM using 100 uM ATP
[15] = target: Mitogen-activated protein kinase 8 (Homo sapiens) (UniProt P45983); test: Percent inhibition against JNK1 at 10 uM using 100 uM ATP
[16] = target: T3, Dual specificity tyrosine-phosphorylation-regulated kinase 1A; test: Percent inhibition against DYRK1a at 10 uM using 100 uM ATP
[17] = target: T1, Ribosomal protein S6 kinase alpha-5; test: Percent inhibition against MSK1 at 10 uM using 100 uM ATP
Target sequence in this assay (O75582 whole entry, looked up): as the sequence (O75582 whole entry) above

[18] = target: Casein kinase II (Homo sapiens) (UniProt P67870+P68400+P19784); test: Percent inhibition against CK2 at 10 uM using 100 uM ATP; format: protein-complex assay
[19] = target: Mitogen-activated protein kinase 1 (Homo sapiens) (UniProt P28482); test: Percent inhibition against MAPK2 at 10 uM using 100 uM ATP
[20] = target: T4, Rho-associated protein kinase 1; test: Inhibitory concentration against selected kinase ROCK1
Target sequence in this assay (Q13464 whole entry): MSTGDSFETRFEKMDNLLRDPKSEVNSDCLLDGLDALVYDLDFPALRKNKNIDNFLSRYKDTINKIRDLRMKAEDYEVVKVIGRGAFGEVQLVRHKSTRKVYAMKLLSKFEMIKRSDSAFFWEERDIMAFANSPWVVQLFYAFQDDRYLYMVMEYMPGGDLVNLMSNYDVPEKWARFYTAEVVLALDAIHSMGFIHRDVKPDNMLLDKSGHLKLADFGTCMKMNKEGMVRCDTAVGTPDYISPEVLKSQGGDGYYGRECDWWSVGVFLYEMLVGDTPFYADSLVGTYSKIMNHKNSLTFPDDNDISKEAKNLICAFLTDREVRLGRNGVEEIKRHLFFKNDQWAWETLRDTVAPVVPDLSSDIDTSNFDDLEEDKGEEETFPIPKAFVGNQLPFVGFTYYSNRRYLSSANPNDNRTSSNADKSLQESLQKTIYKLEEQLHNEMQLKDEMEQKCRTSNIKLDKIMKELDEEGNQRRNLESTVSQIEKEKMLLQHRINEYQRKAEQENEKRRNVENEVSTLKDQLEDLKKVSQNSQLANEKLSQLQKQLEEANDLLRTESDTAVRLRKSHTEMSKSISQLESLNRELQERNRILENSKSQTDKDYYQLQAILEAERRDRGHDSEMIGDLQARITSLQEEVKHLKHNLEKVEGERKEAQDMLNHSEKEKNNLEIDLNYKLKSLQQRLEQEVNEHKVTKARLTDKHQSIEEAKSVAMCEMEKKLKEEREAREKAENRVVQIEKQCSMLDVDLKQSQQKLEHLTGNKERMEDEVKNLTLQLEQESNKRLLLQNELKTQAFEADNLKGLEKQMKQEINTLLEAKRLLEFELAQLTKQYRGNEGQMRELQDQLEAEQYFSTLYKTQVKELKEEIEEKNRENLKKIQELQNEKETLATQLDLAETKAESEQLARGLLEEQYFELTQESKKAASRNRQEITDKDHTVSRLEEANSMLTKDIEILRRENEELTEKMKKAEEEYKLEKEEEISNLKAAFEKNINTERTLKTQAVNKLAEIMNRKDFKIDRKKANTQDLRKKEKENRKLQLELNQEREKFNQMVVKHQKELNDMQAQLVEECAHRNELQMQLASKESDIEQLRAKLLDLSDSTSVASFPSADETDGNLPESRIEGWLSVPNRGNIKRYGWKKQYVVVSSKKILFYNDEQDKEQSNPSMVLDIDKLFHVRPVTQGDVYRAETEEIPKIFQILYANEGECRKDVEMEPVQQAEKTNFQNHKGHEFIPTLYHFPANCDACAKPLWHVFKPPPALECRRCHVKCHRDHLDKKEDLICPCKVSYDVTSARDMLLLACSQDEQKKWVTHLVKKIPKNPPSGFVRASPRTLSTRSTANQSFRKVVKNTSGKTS

[21] = target: Protein kinase C alpha type (Homo sapiens) (UniProt P17252); test: Percent inhibition against PKCalpha at 10 uM using 100 uM ATP
[22] = target: Serine/threonine-protein kinase Chk1 (Homo sapiens) (UniProt O14757); test: Percent inhibition against Chk1 at 10 uM using 100 uM ATP
[23] = target: Glycogen synthase kinase-3 beta (Homo sapiens) (UniProt P49841); test: Percent inhibition against GSK3-beta at 10 uM using 100 uM ATP
[24] = target: Mitogen-activated protein kinase 14 (Homo sapiens) (UniProt Q16539); test: Percent inhibition against p38-alpha at 10 uM using 100 uM ATP
[25] = target: Serine/threonine-protein kinase Sgk1 (Homo sapiens) (UniProt O00141); test: Percent inhibition against SGK at 10 uM using 100 uM ATP
[26] = target: T5, Ribosomal protein S6 kinase beta-1; conditions: 10 uM
Target sequence in this assay (P23443 whole entry, looked up): as the sequence (P23443 whole entry) above
Description: Percent inhibition against p70S6K at 10 uM using 100 uM ATP

Chain of 3-phosphoinositide-dependent protein kinase 1 (Homo sapiens) (O15530 whole entry, looked up): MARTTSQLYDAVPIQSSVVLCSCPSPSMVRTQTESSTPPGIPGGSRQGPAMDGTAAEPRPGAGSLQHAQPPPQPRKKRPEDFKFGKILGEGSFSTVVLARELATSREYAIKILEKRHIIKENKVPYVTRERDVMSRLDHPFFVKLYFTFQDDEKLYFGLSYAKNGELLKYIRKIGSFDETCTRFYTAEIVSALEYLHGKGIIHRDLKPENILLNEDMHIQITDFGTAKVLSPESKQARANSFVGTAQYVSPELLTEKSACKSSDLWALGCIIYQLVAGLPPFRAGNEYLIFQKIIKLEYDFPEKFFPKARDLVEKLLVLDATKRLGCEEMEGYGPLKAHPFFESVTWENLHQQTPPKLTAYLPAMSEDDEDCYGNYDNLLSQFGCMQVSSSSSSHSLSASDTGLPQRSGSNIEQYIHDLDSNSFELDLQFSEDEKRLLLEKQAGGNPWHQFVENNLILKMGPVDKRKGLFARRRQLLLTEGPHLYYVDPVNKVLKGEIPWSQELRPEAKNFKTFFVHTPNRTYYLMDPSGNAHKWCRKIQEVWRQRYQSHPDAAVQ
Chain of Mitogen-activated protein kinase 11 (Homo sapiens) (Q15759 whole entry): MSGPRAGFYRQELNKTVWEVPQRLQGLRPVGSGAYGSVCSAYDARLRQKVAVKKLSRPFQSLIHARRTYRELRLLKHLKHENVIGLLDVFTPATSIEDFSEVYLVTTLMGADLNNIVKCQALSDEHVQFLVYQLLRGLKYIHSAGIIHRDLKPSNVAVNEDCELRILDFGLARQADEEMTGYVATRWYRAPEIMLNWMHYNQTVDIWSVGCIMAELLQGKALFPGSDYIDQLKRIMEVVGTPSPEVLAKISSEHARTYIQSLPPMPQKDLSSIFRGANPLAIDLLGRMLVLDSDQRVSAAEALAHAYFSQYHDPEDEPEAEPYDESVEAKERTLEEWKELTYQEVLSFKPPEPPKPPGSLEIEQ

With `CCn1c(-c2nonc2N)nc2c(C)nccc21` the pIC50 [1] was 8.10.
In the case of `CCn1c(-c2nonc2N)nc2cnccc21`, the inhibition [2] was 75%, the inhibition [3] was 97% and the inhibition [4] was 32%. For the same molecule, the inhibition [5] was 84%, the pIC50 [1] was 8.52 and the inhibition [6] was 17%. The inhibition [7] was 6%, the pIC50 [8] was 6.96 and the pIC50 [9] was 6.77. It also gave an inhibition [10] of 18%, an inhibition [11] of 90% and a pIC50 [12] of 7.15. It also gave an inhibition [13] of 59%, an inhibition [14] of 12% and an inhibition [15] of 13%. The inhibition [16] was 94%, the inhibition [17] was 96% and the inhibition [18] was 15%. For the same molecule, the inhibition [19] was 41%, the pIC50 [20] was 7.89 and the inhibition [21] was 56%. For the same molecule, the inhibition [22] was -6%, the inhibition [23] was 90% and the inhibition [24] was -7%. It also gave an inhibition [25] of 67% and an inhibition [26] of 95%.
`CCOc1nccc2c1nc(-c1nonc1N)n2CC` showed a pIC50 [1] of 6.76.
Work on `CCn1c(-c2nonc2N)nc2cncc(CNC3CCNCC3)c21` yielded a pIC50 [1] of 9.30, a pIC50 [8] of 5.31 and a pIC50 [9] of less than 5.00. It also gave a pIC50 [12] of 6.57 and a pIC50 [20] of 7.00.
Work on `NCc1ccc(-n2c(-c3nonc3N)nc3cnccc32)cc1` yielded a pIC50 [1] of 8.40.
With `CN(C)CCCn1c(-c2nonc2N)nc2cnccc21` the pIC50 [1] was 6.21.
In the case of `CCn1c(-c2nonc2N)nc2c(OC)nccc21`, the pIC50 [1] was 6.68.
For `Nc1nonc1-c1nc2cnccc2n1C1CCCCC1`, the pIC50 [1] was 8.52.
Molecule `NCCCCn1c(-c2nonc2N)nc2cnccc21` has a pIC50 [1] of 7.89.
For `CCn1c(-c2nonc2N)nc2c(-c3ccccc3)nccc21`, the pIC50 [1] was 6.09.
`CCn1c(-c2nonc2N)nc2cncc(CN3CCNCC3)c21` was tested, and the pIC50 [1] was 8.85.
`NCCCn1c(-c2nonc2N)nc2cnccc21` gave a pIC50 [1] of 7.66.
`Nc1nonc1-c1nc2cnccc2n1C1CCNCC1` was tested, and the pIC50 [1] was 7.77.
`NCc1cccc(-n2c(-c3nonc3N)nc3cnccc32)c1` gave a pIC50 [1] of 8.60.
In the case of `CCc1nccc2c1nc(-c1nonc1N)n2CC`, the pIC50 [1] was 6.64.
`CCn1c(-c2nonc2N)nc2cncc(CN3CCC(N)CC3)c21` was tested, and the pIC50 [1] was 8.52.
For `CCn1c(-c2nonc2N)nc2c(Oc3ccccc3)nccc21`, the pIC50 [1] was 5.00.
`Nc1nonc1-c1nc2cnccc2n1C1CC1` gave a pIC50 [1] of 8.82.
With `Nc1nonc1-c1nc2cnccc2n1-c1ccccc1` the pIC50 [1] was 8.22.
`CCn1c(-c2nonc2N)nc2c(N3CCCC3)nccc21` showed a pIC50 [1] of 5.65.
For `Nc1nonc1-c1nc2cnccc2n1C1CCCNC1` (racemic), the pIC50 [1] was 8.70.
Molecule `CCn1c(-c2nonc2N)nc2c(Cl)nccc21` has a pIC50 [1] of 8.40.
Work on `CCn1c(-c2nonc2N)nc2cncc(CN3CCCCC3)c21` yielded a pIC50 [1] of 8.15.
